This is an account of results in publication PMC11747586, “Synthesis and Investigation of Peptide–Drug Conjugates Comprising Camptothecin and a Human Protein‐Derived Cell‐Penetrating Peptide” (Chemical Biology & Drug Design, 2025).

Positions of bridges follow the written chain, without caps; N, C: chain ends. Residues, ends and D or L forms follow the SMILES beside them. A value given as a limit tells only on which side of the number the result lay.

A short description of data set [1]: Parallel artificial membrane permeability assay (PAMPA). The format is in vitro ADME. The conditions noted are these: PAMPA. As for the experimental part:
FIGURE 4 (A) Membrane permeability and cellular uptake of PDCs, scaffold peptides, and CPT. Compounds were added to PAMPA wells (4 μM) and incubated for 4 h. Supernatant from apical and basolateral sides of the membrane were collected and analyzed using LC–MS. The amount in the combined soluble fractions was compared to the starting amount to determine % recovery, and the apparent permeability (Papp) was calculated as before (Sevin et al. [2013]). Data is expressed as mean ± SD from a single experiment with three technical replicates. (B) Internalization/cell membrane association of PDCs 12–14 and PDIP with HT144 cells. Cells were treated with PDIP or PDCs (4 μM) for 1 h, washed to remove extracellular compound, then extracted with 75% (v/v) MeCN in mQH2O (containing 1.75% (v/v) TFA), to recover soluble peptide or PDC from precipitated cell proteins. The relative amount of internalized peptide or PDC was determined by integrating area under the curve (AUC) for the [M + 6H]^6+ m/z peak (for the intact mass) using time of flight–mass spectrometry (see Figure S2). […] Data is expressed as mean ± SD from a single experiment with three technical replicates for each treatment and control and was analyzed with ANOVA (Tukey multiple comparisons; **p < 0.01, *p < 0.05). (C) Detection of intracellular CPT following 6 h treatment of HT144 cells with CPT and PDCs 12 and 14. […] Data is expressed as mean ± SD from a single experiment with three technical replicates for each treatment and was analyzed with ANOVA (Fisher multiple paired comparisons; **p < 0.01, *p < 0.05). TEXT PRINTED IN THE PICTURE: (A) PDIP: % recovered (soluble fractions): 94 | (A) 12: % recovered (soluble fractions): 58 | (A) 14: % recovered (soluble fractions): 33 | (A) 15: % recovered (soluble fractions): 40 | (A) c[A] PDIP: % recovered (soluble fractions): 34 | (A) CPT: % recovered (soluble fractions): 92 […]
For the first assay, the PDCs (12–15), scaffold peptides and CPT (4 μM) were added to the apical side of PAMPA monolayers and incubated for 4 h. […] PDIP, CPT, and PDCs 12 and 14 had high permeability (Papp ≥ 2 × 10^−6 cm/s), highlighting that these PDCs maintain membrane permeability with the CPT cargo attached. […] Reliable permeability data were not obtained for PDC 13 because of poor recovery of the PDC from soluble fractions, and degradation during the 4 h PAMPA experiment. […] Instability of the carbonate linkage within CPT conjugates containing a dipeptide linker has been previously reported (Walker et al. [2002]), highlighting the potential incompatibility of this drug–linker combination for CPT PDCs. Considering the observed degradation of 13 in the cell‐free assay, it is also possible that extracellular degradation occurred during the cytotoxicity assays.
Parallel artificial membrane permeability assay (PAMPA)
PAMPA was performed according to the manufacturer instructions for the BD Gentest pre-coated PAMPA plate system (BD Biosciences), as previously described.16 Briefly, peptides and PDCs (4 μM in PBS) were added to the apical side of PAMPA wells and incubated for 4 h at 37 °C, 5% CO2 with 95% humidity. Soluble fractions were recovered from the apical and basolateral sides, and compound concentration was quantified using a Shimadzu LCMS-2020 instrument with a Phenomenex 5 µm C18 / 300 Å / 150 x 2 mm LC column. Data was collected from three technical replicates for each compound. The % recovery was determined from (combined from apical and basolateral fractions) relative to the starting concentration:
Recovery rate : R (%) = (C஺ ×V஺ +C஻ ×V஻ )× 100 where CA and CB are the apical and basolateral concentrations (µM), VA and VB are the apical and basolateral volumes (mL), and C0 is the initial concentration (µM).
The apparent permeability coefficient (Papp) was calculated using the following equations17 and where A is the membrane surface area (cm2): […]
Background: PAMPA measures passive passage across an artificial lipid membrane.

A short description of the next data set: cells. As for the experimental part:
Cell death was measured using resazurin, with 0.1% (v/v) Triton X‐100 as a control for 100% cell death. Data points are expressed as mean ± SD for at least two biological replicates. Dose response curves were fitted using [inhibitor] versus response with variable slope, Graphpad Prism v10. […] RBC lysis was determined by measuring released hemoglobin, with 0.1% (v/v) Triton X‐100 as a control for 100% cell lysis. Melittin was included as a membranolytic control. Data points are expressed as mean ± SD for two technical replicates. Dose response curves were fitted using [inhibitor] versus response with variable slope, Graphpad Prism v10. […] CC50 values are expressed as mean (SEM).
Cell death was measured using resazurin, with 0.1% (v/v) Triton X-100 as a control for 100% cell death. Data points are expressed as mean ± SD for at least two biological replicates. CC50 values are expressed as mean (SEM). Note: CPT-dipeptide-PDIP was not included in this study. c[A]PDIP is a desulfurized variant of cPDIP 2 (see Table S1) to prevent the presence of free thiol during assays. […]
HaCaT cells were grown in DMEM medium and HT144 cells were grown in RPMI medium supplemented with 2 mM L-glutamine and 10 mM sodium pyruvate. Media were supplemented with 10% (v/v) fetal bovine serum, 100 units/mL of penicillin and […] of streptomycin. Flasks of cultured cells were maintained in a humidified incubator (37 °C, 5% CO2) and passaged every 2–3 days to maintain cultures between 20–90% confluence. Cell line identity was verified by comparing […]
STR profiles of the cell lines against database entries from the DSMZ-German collection of microorganisms and cell cultures, GmBH https://celldive.dsmz.de/str/browse.
Toxicity to the HT144 and HaCaT cell lines was tested following peptide treatment by measuring the metabolism of resazurin into fluorescent resorufin. The assays were performed with 5000 cells/well (96-well plate) in serum free media. Cells were incubated with serially diluted peptides, PDCs or […]

The term Papp denotes the rate of passage across a membrane or cell layer, normalised by area and donor concentration. One may read the CC50 as the concentration at which the toxic effect on the cells reaches its halfway point. For the compound `CC[C@H](C)[C@@H]1NC(=O)[C@H](CCCCN)NC(=O)[C@H](CCCCN)NC(=O)[C@H](Cc2ccc(O)cc2)NC(=O)[C@H](CC(C)C)NC(=O)[C@@H]2CCCN2C(=O)CNC(=O)CNC(=O)[C@@H](NC(=O)CN)CSSC[C@@H](C(=O)N[C@@H](CCC(=O)O)C(=O)N[C@@H](CO)C(N)=O)NC(=O)[C@H](CC(C)C)NC(=O)[C@H](CCCCN)NC(=O)[C@H](CCCCN)NC(=O)[C@H]([C@@H](C)CC)NC(=O)[C@H]([C@@H](C)CC)NC(=O)[C@H](CCCCN)NC(=O)[C@H](CCCCN)NC(=O)[C@H](Cc2ccc(O)cc2)NC(=O)[C@H](CC(C)C)NC(=O)[C@@H]2CCCN2C(=O)[C@H](C)NC(=O)CNC(=O)CNC(=O)[C@H](CO)NC(=O)CNC(=O)CNC(=O)[C@H](CO)NC(=O)[C@H](CCC(=O)O)NC(=O)[C@H](CC(C)C)NC(=O)[C@H](CC(C)C)NC(=O)[C@H](CCCCN)NC(=O)[C@H](CCCCN)NC(=O)[C@H]([C@@H](C)CC)NC1=O` [PDIP, reference compound] (H-GCGGPLYKKIIKKLLESGGSGGAPLYKKIIKKLCES-NH2; disulfide 2-34; N-terminus assumed), in data set [1], the Papp at 4 h, 4 μM was at least 2 ×10⁻⁶ cm/s. In “cells”, this compound came in with a CC50 of 4.83 µM.
